This is an account of results in PMC12844257, “Click Chemistry-Enabled Parallel Synthesis of N-Acyl Sulfonamides and Their Evaluation as Carbonic Anhydrase Inhibitors” (Molecules, 2026).

In assay [1] the target is T1, hCA-IX (catalytic domain) (Homo sapiens, UniProt Q16790). The experiment in a line: Thermal shift assay (TSA / differential scanning fluorimetry). The format is binding. The note with it: for ΔTm, median: at 40 µM compound, n = 4. In general terms: In DSF a fluorescence change marks the thermal transition of the protein.
For assay [2], the target named is T2, hCA-II (Homo sapiens, UniProt P00918).
T2 construct: recombinant hCA-IX (catalytic domain) and hCA-II (full-length protein); made in house; host or cells: E. coli
The experiment in a line: hCA esterase activity inhibition assay (p-nitrophenyl acetate hydrolysis) with IC50 determination. The format is biochemical. The method, then:
(§1) The catalytic activity of hCA-II and hCA-IX was monitored through the enzymatic hydrolysis of p-nitrophenyl acetate. […]
(§2) hCA esterase activity inhibition screening assay (with IC50 determination) The protocol was adapted from the work by Wu and co-authors.3 Briefly, the catalytic activity of human hCA-IX (catalytic domain) and hCA-II recombinant proteins was monitored by following the hydrolysis of p-nitrophenyl […]
(§3) prepared in DMSO) as a reference compound, were titrated from 200 µM to 0.01 µM at 3× serial dilutions (10-point […]
(§4) HCl, 200 mM NaCl, pH 7.5), and aliquoted into the assay-ready plates with tested compounds immediately prior to the analysis using an automated multichannel dispenser Multidrop Combi (Thermo Fischer Scientific).
(§5) The products of the hydrolysis reaction are acetate and nitrophenolate, which ionizes to give a bright yellow anion […]
(§6) The compounds were formatted into 384-well plates in the following manner. The first two columns (n = 32 wells) […]
(§7) In between, the tested compounds were placed at the defined dilution step of the 10-points concentration curve, each point of which was a quadruplicate (n = 4 wells). Thus, the […]
(§8) deviation of <0.05, were used for further assessment of each point of inhibition curves; they were not shown in the […]
(§9) performed with Labcyte Echo liquid handler to prepare assay-ready plates. Reaction was run in 25 µL of assay buffer […]
(§10) Enzymatic reactions were initiated by pipetting 5 mM stock solution of 4-nitrophenyl acetate (4-NPA) in ethanol to each well (final concentration in the reaction mixture – 0.5 mM for hCA-II and 0.9 mM for hCA-IX). The final reaction volume was 27.5 µL. The enzyme activity was evaluated by monitoring the production of colored product, 4- […]
(§11) SpectraMax M5 (Molecular Devices). The assay was performed twice for each enzyme.
(§12) Each data point of the titration curve was calculated as average of aggregate data value of four measurements per each concentration (technical replicate for each concentration n = 4). The IC50 values were calculated using GraphPad […]
(§13) for maximum inhibition of the enzyme (as described above) and apply this value for further calculation of the percent […]
(§14) Secondly, it was also titrated as one of the tested compounds to ensure that the assay is performing properly withing the given range of the known inhibitor […]
(§15) compounds in Figures S4 and S5.

Assay [3] deals with T1, hCA-IX (catalytic domain). The assay is described as above. The class given is biochemical. The method, then: as §1, §2, §3, §4, §5, §6, §7, §8, §9, §10, §11, §12, §13, §14, §15
Assay [4] has as its target hCA-II (full-length protein) (Homo sapiens, UniProt P00918). In words: Thermal shift assay (TSA / differential scanning fluorimetry). The note with it: for Tm: hCA-II.
Setting [5] is: 200 nM hCA-II, 0.5 mM 4-NPA, 10-point curve, n = 4, read-out: IC50.
The mark [6] stands for this setting: hCA-II, bound stated, read-out: potency (IC50).
The mark [7] stands for this setting: 917 nM hCA-IX, 4-NPA, 10-point curve, n = 4, read-out: IC50.
[8] abbreviates: hCA-IX, bound stated, read-out: potency (IC50).

Values joined by “and” are separate entries in the source; they are usually repeats but may differ in a detail not shown here. Identical values can stand only once. Like-named read-outs stand apart in the source and are kept apart here.

As usually defined, the Tm is the temperature at which the thermal transition is half complete. What is called ΔTm is the shift of the melting midpoint relative to a reference. Broadly, the IC50 is the concentration needed to halve the response being measured. With `COCC(=O)NS(=O)(=O)c1ccc(-c2cn(CCN(C)Cc3cccc(F)c3)nn2)cc1` [4{16,7,19}], the Tm amounted to 56.80 °C in assay [1] (screening at 20 µM), 56.98 °C in assay [1] (screening at 40 µM), 51.10 °C in assay [4] (screening at 20 µM) and 49.58 °C in assay [4] (screening at 40 µM). Also, the ΔTm stood at 1.17 °C in assay [1] (screening at 20 µM) and 0.92 °C in assay [1] (screening at 40 µM). The IC50 in assay [2] (setting [5]) is 0.2 µM; in assay [2] (setting [6]), less than 10 µM; in assay [3] (setting [7]) it was 1.1 µM and 1.11 µM; in assay [3] (setting [8]), less than 10 µM. Moreover, in assay [4] (read-out: ΔTm), the ΔTm at 20 µM was -3.22 °C. Besides, in assay [4] (read-out: ΔTm, median), the ΔTm at 40 µM was -4.95 °C.

In the case of `Cc1cc(C(=O)NS(=O)(=O)c2ccc(-c3cn(CCN(C)Cc4cccc(F)c4)nn3)cc2)ccn1` [4{16,7,28}], the “ΔTm, median” value in assay [1] turned out to be 1.18 °C. The Tm stood at 56.77 °C in assay [1] (screening at 20 µM), 57.24 °C in assay [1] (screening at 40 µM), 54.35 °C in assay [4] (screening at 20 µM) and 51.97 °C in assay [4] (screening at 40 µM). For the same molecule, the ΔTm in assay [1] (screening at 20 µM) was 1.14 °C. For the same molecule, the half-maximal inhibitory concentration (IC50) in assay [2] (setting [5]) is 1.7 µM; in assay [2] (setting [6]) it was less than 10 µM; in assay [3] (917 nM hCA-IX, 4-NPA, 10-point curve, n = 4, listed as 4(16,7,28), read-out: IC50), 7.1 µM; in assay [3] (setting [7]), 7.13 µM; in assay [3] (setting [8]) it was less than 10 µM. In addition, in assay [4] (read-out: ΔTm), the ΔTm at 20 µM came to 0.03 °C. The ΔTm at 40 µM in assay [4] (read-out: ΔTm, median) is -2.55 °C.

Take `O=C(NS(=O)(=O)c1ccc(-c2cn(CC3COc4ccccc4O3)nn2)cc1)c1cnsc1` (stereo not drawn) [4{17,7,27}]: the “ΔTm, median” value in assay [1] stood at 1.44 °C. Moreover, the Tm was determined as 56.91 °C in assay [1] (screening at 20 µM), 57.51 °C in assay [1] (screening at 40 µM), 54.82 °C in assay [4] (screening at 20 µM) and 54.73 °C in assay [4] (screening at 40 µM). Further, the ΔTm in assay [1] (screening at 20 µM) stood at 1.28 °C. Further, the half-maximal inhibitory concentration (IC50) was 6.1 µM and 6.07 µM in assay [2] (setting [5]); 23.4 µM in assay [3] (setting [7]). The ΔTm at 20 µM in assay [4] (read-out: ΔTm) worked out at 0.5 °C. In assay [4] (read-out: ΔTm), the shift in melting temperature (ΔTm) at 40 µM stood at 0.21 °C.

Consider `Cc1cc(C(=O)NS(=O)(=O)c2cccc(-n3cc(-c4ccc5nonc5c4)nn3)c2)on1` [7{2,21,60}], for which the “ΔTm, median” value in assay [1] was found to be 1.17 °C. Moreover, the Tm was found to be 55.81 °C in assay [1] (screening at 20 µM), 57.23 °C in assay [1] (screening at 40 µM), 55.24 °C in assay [4] (screening at 20 µM) and 55.22 °C in assay [4] (screening at 40 µM). In addition, in assay [1] (screening at 20 µM), the ΔTm is 0.18 °C. For the same molecule, the IC50 in assay [2] (setting [5]) was 8.7 µM and 8.74 µM; in assay [3] (setting [7]), 17.3 µM. In addition, the ΔTm at 20 µM in assay [4] (read-out: ΔTm) amounted to 0.92 °C. The ΔTm at 40 µM in assay [4] (read-out: ΔTm) was 0.7 °C.
